Data from patent publication US10253018B2, “Apoptosis signal-regulating kinase 1 inhibitors and methods of use thereof” (ENANTA PHARMACEUTICALS, INC., priority 2017, dated 2019).

The molecules below were run against ASK1 (Homo sapiens (Human), UniProt Q99683) (assay: HTRF KinEASE Assay (TR-FRET), inhibition of ASK1). Details: 5 nM ASK1 kinase, 1 uM STK3 peptide substrate, 100 uM ATP, 3 hours.
Format: biochemical
Excerpt: Assays HTRF® KinEASE™ Assay ASK1 was purchased from Thermofisher (Catalogue # PV4011), ATP was purchased from Sigma (Catalogue # A7699), HTRF® KinEASE™ Assay System was obtained from Cisbio (Bedford, Mass.). ½ Area plate was purchased from Perkin Elmer (Catalogue # #6005560). HTRF® KinEASE™-STK is a generic method for measuring serine/threonine kinase activities using a time-resolved fluorescence resonance energy transfer (TR-FRET) immunoassay. […] The STK3-antibody labeled with Eu^3+-Cryptate and 125 nM streptavidin-XL665 are mixed in a single addition with stop reagents provided by the Cisbio kit used to stop the kinase reaction. Fluorescence is detected using an Envision Multilabeled 2014 reader from PerkinElmer. The Fluorescence is measured at 615 nm (Cryptate) and 665 nm (XL665) and a ratio of 665 nm/615 nm is calculated for each well. The resulting TR-FRET is proportional to the phosphorylation level. Staurosporine was used as the positive control. IC50 was determined by XLfit 5.3.

Chain of ASK1 (Q99683 whole entry): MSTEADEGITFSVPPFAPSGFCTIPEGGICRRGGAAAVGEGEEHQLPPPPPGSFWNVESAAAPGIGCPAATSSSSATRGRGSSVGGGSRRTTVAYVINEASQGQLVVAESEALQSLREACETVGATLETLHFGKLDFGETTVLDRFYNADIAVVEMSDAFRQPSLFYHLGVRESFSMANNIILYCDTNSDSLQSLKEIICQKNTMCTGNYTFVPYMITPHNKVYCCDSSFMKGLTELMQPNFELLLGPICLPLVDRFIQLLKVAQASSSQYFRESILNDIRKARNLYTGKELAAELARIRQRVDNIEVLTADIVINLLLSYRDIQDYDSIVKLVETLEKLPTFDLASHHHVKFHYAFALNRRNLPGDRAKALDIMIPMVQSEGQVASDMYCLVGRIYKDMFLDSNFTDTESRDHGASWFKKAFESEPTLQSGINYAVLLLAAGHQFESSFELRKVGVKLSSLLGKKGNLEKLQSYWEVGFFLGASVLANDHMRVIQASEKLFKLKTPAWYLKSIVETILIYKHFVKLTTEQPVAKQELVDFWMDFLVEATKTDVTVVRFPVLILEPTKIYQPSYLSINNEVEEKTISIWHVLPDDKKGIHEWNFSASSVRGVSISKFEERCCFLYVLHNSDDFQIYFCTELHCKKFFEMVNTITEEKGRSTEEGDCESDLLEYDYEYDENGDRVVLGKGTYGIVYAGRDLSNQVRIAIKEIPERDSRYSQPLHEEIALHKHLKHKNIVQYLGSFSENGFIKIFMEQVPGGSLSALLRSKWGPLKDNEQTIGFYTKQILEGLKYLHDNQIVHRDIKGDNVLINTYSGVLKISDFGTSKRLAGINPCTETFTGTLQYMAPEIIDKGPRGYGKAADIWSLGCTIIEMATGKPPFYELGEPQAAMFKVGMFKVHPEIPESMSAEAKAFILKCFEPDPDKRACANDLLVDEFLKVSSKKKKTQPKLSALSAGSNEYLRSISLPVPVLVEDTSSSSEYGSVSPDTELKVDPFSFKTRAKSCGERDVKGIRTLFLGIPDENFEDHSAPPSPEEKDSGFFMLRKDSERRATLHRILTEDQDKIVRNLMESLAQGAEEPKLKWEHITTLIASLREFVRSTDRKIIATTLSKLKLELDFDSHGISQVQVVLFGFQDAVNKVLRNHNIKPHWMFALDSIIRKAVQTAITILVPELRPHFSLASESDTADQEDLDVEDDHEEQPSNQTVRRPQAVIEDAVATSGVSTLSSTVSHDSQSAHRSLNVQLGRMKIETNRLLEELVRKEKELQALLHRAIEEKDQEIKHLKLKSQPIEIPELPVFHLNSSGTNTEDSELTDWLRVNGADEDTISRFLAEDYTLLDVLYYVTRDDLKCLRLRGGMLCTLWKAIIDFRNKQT

First: CC(C)n1cnnc1-c1cccc(NC(=O)c2ccc3nccnc3c2)n1 [Example 1]
Second: CC(C)n1cnnc1-c1cccc(NC(=O)c2ccc3cccnc3c2)n1 [Example 35]
The IC50 of the first is lower: 100 to 1000 nM for the first, > 1000 nM for the second. The first is the more potent here.

`COc1nc2ccc(C(=O)Nc3cccc(-c4nncn4C(C)C)n3)cc2nc1N1CCOCC1` [Example 2] and `CC(C)Oc1nc2ccc(C(=O)Nc3cccc(-c4nncn4C(C)C)n3)cc2nc1N1CCOCC1` [Example 7] fall in the same range of IC50: 100 to 1000 nM for the first, 100 to 1000 nM for the second.

First: COc1nc2cc(F)c(C(=O)Nc3cccc(-c4nncn4C(C)C)n3)cc2nc1N1CCCCC1 [Example 3]
Second: COc1nc2cc(F)c(C(=O)Nc3cccc(-c4nnnn4C(C)C)n3)cc2nc1N1CCCCC1 [Example 16]
The IC50 of the first is lower: 10 to 100 nM for the first, 100 to 1000 nM for the second.

Compared with `CC(C)Nc1nc2cc(C(=O)Nc3cccc(-c4nncn4C(C)C)n3)ccc2nc1OC(C)C` [Example 4], `COc1nc2ccc(C(=O)Nc3cccc(-c4nncn4C(C)C)n3)cc2nc1NC(C)C` [Example 8] is higher in IC50: 10 to 100 nM for the first, 100 to 1000 nM for the second. The first is the more potent here.

First: COc1nc2ccc(C(=O)Nc3cccc(-c4nncn4C(C)C)n3)cc2nc1N1CCCCC1 [Example 5]
Second: CC(C)Oc1nc2ccc(C(=O)Nc3cccc(-c4nncn4C(C)C)n3)cc2nc1N1CCCCC1 [Example 6]
The IC50 of the first is lower: 100 to 1000 nM for the first, > 1000 nM for the second. The first is the more potent here.

`CC(C)Oc1nc2cc(F)c(C(=O)Nc3cccc(-c4nnnn4C(C)C)n3)cc2nc1N(C)C(C)C` [Example 9] and `CC(C)CN(C)c1nc2cc(C(=O)Nc3cccc(-c4nnnn4C(C)C)n3)c(F)cc2nc1OC(C)C` [Example 12] cannot be ordered by IC50: > 1000 nM for the first, > 1000 nM for the second.

`CC(C)Oc1nc2cc(F)c(C(=O)Nc3cccc(-c4nnnn4C(C)C)n3)cc2nc1OC(C)C` [Example 10] and `CC(C)Nc1nc2cc(C(=O)Nc3cccc(-c4nnnn4C(C)C)n3)c(F)cc2nc1OC(C)C` [Example 14] cannot be ordered by IC50: > 1000 nM for the first, > 1000 nM for the second.

First: CC(C)Oc1nc2cc(F)c(C(=O)Nc3cccc(-c4nncn4C(C)C)n3)cc2nc1OC(C)C [Example 11]
Second: CC(C)Nc1nc2cc(C(=O)Nc3cccc(-c4nncn4C(C)C)n3)c(F)cc2nc1OC(C)C [Example 15]
The IC50 of the first is higher: 100 to 1000 nM for the first, 10 to 100 nM for the second.

First: CC(C)CN(C)c1nc2cc(C(=O)Nc3cccc(-c4nncn4C(C)C)n3)c(F)cc2nc1OC(C)C [Example 13]
Second: CC(C)Nc1nc2cc(C(=O)Nc3cccc(-c4nnnn4[C@@H](C)CO)n3)c(F)cc2nc1OC(C)C [Example 17]
The IC50 of the first is lower: 100 to 1000 nM for the first, > 1000 nM for the second.

`CC(C)n1cnnc1-c1cccc(NC(=O)c2cc3ccccc3cn2)n1` [Example 18] and `CC(C)n1cnnc1-c1cccc(NC(=O)c2cc3cc(Br)ccc3cn2)n1` [Example 19, 6-bromo-N-(6-(4-isopropyl-4H-1,2,4-triazol-3-yl)pyridin-2-yl)isoquinoline-3-carboxamide] fall in the same range of IC50: 1 to 10 nM for the first, 1 to 10 nM for the second.

`CC(C)n1nnnc1-c1cccc(NC(=O)c2cc3cc(Br)ccc3cn2)n1` [Example 20] and `CC(C)n1nnnc1-c1cccc(NC(=O)c2cc3ccccc3cc2F)n1` [Example 41] cannot be ordered by IC50: > 1000 nM for the first, > 1000 nM for the second.

Compared with `CC(C)n1cnnc1-c1cccc(NC(=O)c2cc3cc(N4CCCCC4)ccc3cn2)n1` [Example 21], `CC(C)n1cnnc1-c1cccc(NC(=O)c2ccc3ccc(N4CCCCC4)nc3c2)n1` [Example 26] is higher in IC50: 1 to 10 nM for the first, 10 to 100 nM for the second. The first is the more potent here.

First: CC(C)n1cnnc1-c1cccc(NC(=O)c2cc3cc(-n4cnc(C5CC5)c4)ccc3cn2)n1 [Example 22]
Second: CCn1nccc1-c1ccc2cnc(C(=O)Nc3cccc(-c4nncn4C(C)C)n3)cc2c1 [Example 23]
The IC50 of the first is lower: 1 to 10 nM for the first, 10 to 100 nM for the second. The first is the more potent here.

First: CC(C)n1cnnc1-c1cccc(NC(=O)c2ccc3ccc(N4CCOCC4)nc3c2)n1 [Example 24]
Second: CC(C)n1cnnc1-c1cccc(NC(=O)c2ccc3ccc(N4CC5(COC5)C4)nc3c2)n1 [Example 29]
The IC50 of the first is lower: 100 to 1000 nM for the first, > 1000 nM for the second.

First: CC(C)n1cnnc1-c1cccc(NC(=O)c2ccc3ccc(N(C)C)nc3c2)n1 [Example 25]
Second: CC(C)n1cnnc1-c1cccc(NC(=O)c2ccc3ccc(Cl)nc3c2)n1 [Example 34]
The IC50 of the first is higher: > 1000 nM for the first, 100 to 1000 nM for the second.

Compared with `CC(C)n1cnnc1-c1cccc(NC(=O)c2ccc3ccc(N4CCN(C(C)(C)C)CC4)nc3c2)n1` [Example 27], `CC(C)n1cnnc1-c1cccc(NC(=O)c2ccc3ccc(N4CC5CCC(C4)O5)nc3c2)n1` [Example 30] is lower in IC50: > 1000 nM for the first, 100 to 1000 nM for the second. The second is the more potent here.

First: CC(C)n1cnnc1-c1cccc(NC(=O)c2ccc3ccc(NC4CCCCC4)nc3c2)n1 [Example 28]
Second: COCCNc1ccc2ccc(C(=O)Nc3cccc(-c4nncn4C(C)C)n3)cc2n1 [Example 33]
The IC50 of the first is higher: > 1000 nM for the first, 10 to 100 nM for the second. The second is the more potent here.

First: CCN(Cc1ccccc1)c1ccc2ccc(C(=O)Nc3cccc(-c4nncn4C(C)C)n3)cc2n1 [Example 31]
Second: CC(C)n1cnnc1-c1cccc(NC(=O)c2ccc3ccccc3c2)n1 [Example 39]
The IC50 of the first is higher: > 1000 nM for the first, 100 to 1000 nM for the second.

First: CC(C)n1cnnc1-c1cccc(NC(=O)c2ccc3cc(Br)cnc3c2)n1 [Example 36]
Second: CC(C)n1cnnc1-c1cccc(NC(=O)c2ccc3cc(N4CCOCC4)cnc3c2)n1 [Example 38]
The IC50 of the first is higher: 100 to 1000 nM for the first, 10 to 100 nM for the second.

First: CC(C)n1cnnc1-c1cccc(NC(=O)c2ccc3cc(-c4ccc(C(C)(C)C)cc4)cnc3c2)n1 [Example 37]
Second: CC(C)n1cnnc1-c1cccc(NC(=O)c2cc3ccccc3cc2F)n1 [Example 40]
The IC50 of the first is higher: > 1000 nM for the first, 100 to 1000 nM for the second. The second is the more potent here.
